Assay results from patent publication US20240123073A1, “NOVEL RIPK1 KINASE TARGETING PROTACS AND METHODS OF USE THEREOF” (Baylor College of Medicine, priority 2020, published 2024).

Target: T1, RIPK1 (Homo sapiens, UniProt Q13546)
T1 construct: endogenous in cells
T1 sequence (Q13546 1-671): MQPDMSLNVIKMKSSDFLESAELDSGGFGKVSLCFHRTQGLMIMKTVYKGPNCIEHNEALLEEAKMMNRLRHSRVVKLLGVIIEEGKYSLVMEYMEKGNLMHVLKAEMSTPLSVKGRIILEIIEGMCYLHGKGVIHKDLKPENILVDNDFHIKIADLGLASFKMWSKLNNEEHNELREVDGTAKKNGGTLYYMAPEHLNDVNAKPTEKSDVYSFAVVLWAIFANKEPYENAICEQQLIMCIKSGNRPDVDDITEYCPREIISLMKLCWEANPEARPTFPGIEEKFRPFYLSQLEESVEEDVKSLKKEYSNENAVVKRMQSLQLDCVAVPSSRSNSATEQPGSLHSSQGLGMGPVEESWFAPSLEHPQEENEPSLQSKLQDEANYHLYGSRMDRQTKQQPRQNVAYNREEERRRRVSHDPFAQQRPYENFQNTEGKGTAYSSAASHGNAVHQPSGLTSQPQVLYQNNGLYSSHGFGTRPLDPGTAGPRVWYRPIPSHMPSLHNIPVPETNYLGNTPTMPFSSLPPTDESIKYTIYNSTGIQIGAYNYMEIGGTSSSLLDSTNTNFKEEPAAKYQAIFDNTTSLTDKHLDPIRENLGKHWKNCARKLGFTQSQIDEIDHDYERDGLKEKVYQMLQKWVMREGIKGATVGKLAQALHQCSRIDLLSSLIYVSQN
Assay: RIPK1 degradation Western Blot assay
Type: cell-based
Settings: human cells, 24 h incubation at 37° C., read-out: Degradation Activity (DC50, concentration at which 50% of RIPK1 kinase has been degraded)
Procedure: Cells were seeded in 6-well cell culture plates overnight prior to treatment and incubated with the indicated doses of compounds for 24 h at 37° C. Then, cell pellets were collected and resuspended with RIPA lysis buffer, which was added with 1% […] inhibitor and phosphatase inhibitor Cocktail. Whole-cell protein lysates were sonicated on ice for 20 seconds and centrifuged at 12 000 rpm for 20 min at 4° C. The supernatants were determined using the BCA method. Proteins were separated by sodium dodecyl sulfate-polyacrylamide gel electrophoresis and transferred to polyvinylidene fluoride membranes. The membranes were incubated with blocking buffer for 1 h. Then, the membranes were incubated at 4° C. overnight with the primary antibodies. After washing, the membranes were incubated for 1 h at room temperature with the secondary antibody and washed again. Changes in protein expression was detected using an enhanced chemiluminescence detection reagent. RIPK1 antibody was purchased from Santa Cruz.
The activities of exemplary compounds as described herein, measured in terms of the degradation concentration (DC50 representing the concentration at which 50% of the target, in this case RIPK1 kinase, has been degraded), are provided in Table 11. In Table 11, a DC50 value less than 1 μM is indicated as an “A;” a DC50 value from 1 μM to 10 μM is indicated as a “B” and a DC50 value of greater than 10 μM is indicated as a “C.”

Compound | DC50 [µM]
O=C(NCCOCCC(=O)N1CCC(C(=O)N2N=CCC2c2ccccc2)CC1)[C@@H]1NC2(CCCCC2)[C@@]2(C(=O)Nc3cc(Cl)ccc32)[C@H]1c1cccc(Cl)c1F (stereo partly drawn) [Compound 15, (3′R,4'S,5′R)-6″-chloro-4′-(3-chloro-2-fluorophenyl)-2″-oxo-N-(2-(3-oxo-3-(4-(5-phenyl-4,5-dihydro-1H-pyrazole-1-carbonyl)piperidin-1-yl)propoxy)ethyl)dispiro[cyclohexane-1,2′-pyrrolidine-3′,3″-indoline]-5′-carboxamide] | 1 to 10
Nc1ncnc2c1c(-c1ccc3c(c1)CCN3C(=O)Cc1cccc(OC(F)(F)F)c1)cn2CCCNC(=O)c1ccc(C#Cc2ccc(N3CC4(CN(C(=O)CN5CCC(c6ccc(NC7CCC(=O)NC7=O)cc6)CC5)C4)C3)nc2)cc1 (centres unmarked) [Compound 68] | < 1
O=C1CCC(N2C(=O)c3cccc(NCCOCCOCCOCCNC(=O)c4ccnc(N5CCC(C(=O)N6N=CCC6c6ccccc6)CC5)n4)c3C2=O)C(=O)N1 (centres unmarked) [Compound 19, N-(2-(2-(2-(2-((2-(2,6-dioxopiperidin-3-yl)-1,3-dioxoisoindolin-4-yl)amino)ethoxy)ethoxy)ethoxy)ethyl)-2-(4-(5-phenyl-4,5-dihydro-1H-pyrazole-1-carbonyl)piperidin-1-yl)pyrimidine-4-carboxamide] | 1 to 10
O=C1CCC(C2C(=O)c3cccc(NCCOCCOCCC(=O)N4CCC(C(=O)N5N=CCC5c5ccccc5)CC4)c3C2=O)C(=O)N1 (centres unmarked) [Compound 12] | > 10
O=C(NCCOCCOCCOCCNC(=O)[C@@H]1NC2(CCCCC2)[C@@]2(C(=O)Nc3cc(Cl)ccc32)[C@H]1c1cccc(Cl)c1F)c1ccnc(N2CCC(C(=O)N3N=CCC3c3ccccc3)CC2)n1 (stereo partly drawn) [Compound 20, (3′R,4'S,5′R)-6″-chloro-4′-(3-chloro-2-fluorophenyl)-2″-oxo-N-(1-oxo-1-(2-(4-(5-phenyl-4,5-dihydro-1H-pyrazole-1-carbonyl)piperidin-1-yl)pyrimidin-4-yl)-5,8,11-trioxa-2-azatridecan-13-yl)dispiro[cyclohexane-1,2′-pyrrolidine-3′,3″-indoline]-5′-carboxamide] | 1 to 10
Cc1ncsc1-c1ccc([C@H](C)NC(=O)[C@@H]2C[C@@H](O)CN2C(=O)[C@@H](NC(=O)CCN2CC3(CC(Oc4ccc(C(=O)NCCCn5cc(-c6ccc7c(c6)CCN7C(=O)Cc6cccc(OC(F)(F)F)c6)c6c(N)ncnc65)cn4)C3)C2)C(C)(C)C)cc1 [Compound 38] | 1 to 10
Nc1ncnc2c1c(-c1ccc3c(c1)CCN3C(=O)Cc1cccc(OC(F)(F)F)c1)cn2CCCNC(=O)c1ccc(C#Cc2ccc(N3CCN(C(=O)CN4CCC(c5ccc(NC6CCC(=O)NC6=O)cc5)CC4)CC3)nc2)cc1 (centres unmarked) [Compound 67] | < 1
Cc1ncsc1-c1ccc([C@H](CC(=O)N2CCC(N3CCN(c4ccc(C#Cc5ccc(C(=O)NCCCn6cc(-c7ccc8c(c7)CCN8C(=O)Cc7cccc(OC(F)(F)F)c7)c7c(N)ncnc76)cc5)cn4)CC3)CC2)NC(=O)[C@@H]2C[C@@H](O)CN2C(=O)[C@@H](NC(=O)C2(F)CC2)C(C)(C)C)cc1 [Compound 47] | > 10
Cc1ncsc1-c1ccc([C@H](CC(=O)N2CCN(c3ccc(C#Cc4ccc(C(=O)NCCCn5cc(-c6ccc7c(c6)CCN7C(=O)Cc6cccc(OC(F)(F)F)c6)c6c(N)ncnc65)cc4)cn3)CC2)NC(=O)[C@@H]2C[C@@H](O)CN2C(=O)[C@@H](NC(=O)C2(F)CC2)C(C)(C)C)cc1 [Compound 46] | < 1
Cc1ncsc1-c1ccc([C@H](CC(=O)NCCCCCCCCC(=O)NCCCn2cc(-c3ccc4c(c3)CCN4C(=O)Cc3cccc(OC(F)(F)F)c3)c3c(N)ncnc32)NC(=O)[C@@H]2C[C@@H](O)CN2C(=O)[C@H](NC(=O)C2(F)CC2)C(C)(C)C)cc1 [Compound 40, (2S,4R)—N—((S)-3-((9-((3-(4-amino-5-(1-(2-(3-(trifluoromethoxy)phenyl)acetyl)indolin-5-yl)-7H-pyrrolo[2,3-d]pyrimidin-7-yl)propyl)amino)-9-oxononyl)amino)-1-(4-(4-methylthiazol-5-yl)phenyl)-3-oxopropyl)-1-((R)-2-(1-fluorocyclopropane-1-carboxamido)-3,3-dimethylbutanoyl)-4-hydroxypyrrolidine-2-carboxamide] | < 1
Cc1ncsc1-c1ccc([C@H](C)NC(=O)[C@@H]2C[C@@H](O)CN2C(=O)[C@@H](NC(=O)CCCCCCCCNC(=O)c2ccc(-c3cc(N4CCC(C(=O)N5N=CCC5c5ccccc5)CC4)ncn3)cc2)C(C)(C)C)cc1 (some centres unmarked) [Compound 77] | > 10

Further lines, results first:

DC50 [µM] | Compound
< 1 | Cc1ncsc1-c1ccc([C@H](C)NC(=O)[C@@H]2C[C@@H](O)CN2C(=O)[C@@H](NC(=O)CCN2CCC(C#Cc3ccc(C(=O)NCCCn4cc(-c5ccc6c(c5)CCN6C(=O)Cc5cccc(OC(F)(F)F)c5)c5c(N)ncnc54)cc3)CC2)C(C)(C)C)cc1 [Compound 36]
< 1 | Cc1ncsc1-c1ccc([C@H](CC(=O)N2CCC(N3CCC(C#Cc4ccc(C(=O)NCCCn5cc(-c6ccc7c(c6)CCN7C(=O)Cc6cccc(OC(F)(F)F)c6)c6c(N)ncnc65)cc4)CC3)CC2)NC(=O)[C@@H]2C[C@@H](O)CN2C(=O)[C@@H](NC(=O)C2(F)CC2)C(C)(C)C)cc1 [Compound 45]
< 1 | Cc1ncsc1-c1ccc([C@H](C)NC(=O)[C@@H]2C[C@@H](O)CN2C(=O)[C@@H](NC(=O)CCOCCOCCOCCOCCn2cc(-c3ccc4c(c3)CCN4C(=O)Cc3cccc(OC(F)(F)F)c3)c3c(N)ncnc32)C(C)(C)C)cc1 [Compound 29, (2S,4R)-1-((S)-1-(4-amino-5-(1-(2-(3-(trifluoromethoxy)phenyl)acetyl)indolin-5-yl)-7H-pyrrolo[2,3-d]pyrimidin-7-yl)-17-(tert-butyl)-15-oxo-3,6,9,12-tetraoxa-16-azaoctadecan-18-oyl)-4-hydroxy-N—((S)-1-(4-(4-methylthiazol-5-yl)phenyl)ethyl)pyrrolidine-2-carboxamide]
1 to 10 | Nc1ncnc2c1c(-c1ccc3c(c1)CCN3C(=O)Cc1cccc(OC(F)(F)F)c1)cn2CCCNC(=O)CCOCCOCCOCCNc1cccc2c1C(=O)C(C1CCC(=O)NC1=O)C2=O (centres unmarked) [Compound 8, N-(3-(4-amino-5-(1-(2-(3-(trifluoromethoxy)phenyl)acetyl)indolin-5-yl)-7H-pyrrolo[2,3-d]pyrimidin-7-yl)propyl)-3-(2-(2-(2-((2-(2,6-dioxopiperidin-3-yl)-1,3-dioxo-2,3-dihydro-1H-inden-4-yl)amino)ethoxy)ethoxy)ethoxy)propanamide]
< 1 | Nc1ncnc2c1c(-c1ccc3c(c1)CCN3C(=O)Cc1cccc(OC(F)(F)F)c1)cn2CCCNC(=O)CCCCNC(=O)CN1CCC(c2ccc(NC3CCC(=O)NC3=O)cc2)CC1 (centres unmarked) [Compound 62]
< 1 | Cc1ncsc1-c1ccc([C@H](C)NC(=O)[C@@H]2C[C@@H](O)CN2C(=O)[C@@H](NC(=O)CCc2ccc(C#Cc3ccc(C(=O)NCCCn4cc(-c5ccc6c(c5)CCN6C(=O)Cc5cccc(OC(F)(F)F)c5)c5c(N)ncnc54)cc3)cn2)C(C)(C)C)cc1 [Compound 33]
> 10 | O=C1CCC(N2C(=O)c3cccc(NCCOCCOCCOCCNC(=O)c4ccc(-c5cc(N6CCC(C(=O)N7N=CCC7c7ccccc7)CC6)ncn5)cc4)c3C2=O)C(=O)N1 (centres unmarked) [Compound 21, N-(2-(2-(2-(2-((2-(2,6-dioxopiperidin-3-yl)-1,3-dioxoisoindolin-4-yl)amino)ethoxy)ethoxy)ethoxy)ethyl)-4-(6-(4-(5-phenyl-4,5-dihydro-1H-pyrazole-1-carbonyl)piperidin-1-yl)pyrimidin-4-yl)benzamide]
> 10 | O=C1CCC(C2C(=O)c3cccc(NCCOCCOCCOCCC(=O)N4CCC(C(=O)N5N=CCC5c5ccccc5)CC4)c3C2=O)C(=O)N1 (centres unmarked) [Compound 11]
1 to 10 | Nc1ncnc2c1c(-c1ccc3c(c1)CCN3C(=O)Cc1cccc(OC(F)(F)F)c1)cn2CCCNC(=O)CCCCCCCCNC(=O)[C@@H]1NC2(CCCCC2)[C@@]2(C(=O)Nc3cc(Cl)ccc32)[C@H]1c1cccc(Cl)c1F [Compound 10, (3′R,4'S,5′R)-N-(9-((3-(4-amino-5-(1-(2-(3-(trifluoromethoxy)phenyl)acetyl)indolin-5-yl)-7H-pyrrolo[2,3-d]pyrimidin-7-yl)propyl)amino)-9-oxononyl)-6″-chloro-4′-(3-chloro-2-fluorophenyl)-2″-oxodispiro[cyclohexane-1,2′-pyrrolidine-3′,3″-indoline]-5′-carboxamide]
